One assay deals with LRRK2 (Homo sapiens, UniProt Q5S007). Briefly: LRRK2 enzyme inhibition, ADP-Glo kinase assay. Format: biochemical. More on the design: purchased Invitrogen PR8604B. The conditions noted are these: ATP 10 μM. Put shortly: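 ADP-Glo luminescent read-out of ADP formed by purified human LRRK2 enzyme (25 ng), 10 μM ATP, 0.2 μg substrate, 25° C for 2 h, Tris-HCl pH 7.4 buffer with MgCl2, BSA, DTT. Inhibition versus untreated solvent control over twelve final concentrations (50 μM downward) gives IC50.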

The next assay deals with T1, human GST-DYRK1A (Homo sapiens, UniProt Q13627).
T1 construct: purified human GST-DYRK1A (full length, Thermo Scientifics) enzyme; purchased Thermo Scientifics
The assay is described as follows: GST-DYRK1A enzyme inhibition, ADP-Glo kinase assay. The class given is biochemical. The conditions noted are these: ATP 10 μM, GST-DYRK1A full length, read-out: DYRK1 IC50. Put shortly: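 Full-length enzyme (10 ng) was incubated with 10 μM ATP and a specific substrate for 1 h at 25 °C in 40 mM Tris-HCl pH 7.4, 20 mM MgCl2, 0.5 mg/mL BSA, 50 μM DTT. Luminescence was read against a solvent control, and IC50 values were derived from 3 data sets.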

A further assay addresses T2, human GST-CLK1 (Homo sapiens, UniProt P49759).
T2 construct: purified human GST-CLK1 (129-end, SignalChem) enzyme; purchased SignalChem
The assay is described as follows: GST-CLK1 enzyme inhibition, ADP-Glo kinase assay. Format: biochemical. The conditions noted are these: ATP 10 μM, GST-CLK1 129-end. Put shortly: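 ADP-Glo luminescence read-out, relative to untreated solvent control, gave IC50 (nM) from triplicate data sets. Reactions ran an hour at 25° C with 3 ng GST-CLK1 (residues 129-end), 10 μM ATP and specific substrate in Tris-HCl pH 7.4 buffer with MgCl2, BSA and DTT.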

A further assay concerns MDA-MB-468 cell line. Briefly: Inhibition of proliferation of MDA-MB-468 cancer cells (Cell Titer-Glo). The class given is cell-based. The following applies: Homo sapiens, MDA-MB-468, 72 hours. The protocol:
(§1) To evaluate an inhibitory effect on the proliferation of cancer cells, each of an MDA-MB-231 cell line (Korean Cell Line Bank #30026) and an MDA-MB-468 cell line as triple-negative breast cancer cell lines, and SHP-77 (ATCC #CRL-2195) as a small-cell lung cancer cell line was cultured in DMEM (HyClone #SH30243) or an RPMI medium (HyClone #SH3027.01) to analyze a cell growth rate. More specifically, a cell line was plated on a 96-well flat bottom plate (Corning #3903) at a density of 2,000 cells/100 μL per well, and then treated with 11 concentrations of the Example compound, a solution of which was diluted 3-fold so that a final concentration of the compound was 10.000000, 3.333333, 1.111111, 0.370370, 0.123457, 0.041152, 0.013717, 0.004572, 0.001524, 0.000508, and 0.000169 μM. After 72 hours, each of the culture media was treated with 100 μL of Cell Titer-Glo (Promega G7573), and then cultured at room temperature for 10 minutes. Then, a degree of luminescence was measured using a microplate reader. A GI50 value was calculated from the measured degree of luminescence using Prism (Version 8.2 GraphPad) software.

A further assay deals with human DYRK1A and tau. Briefly: Inhibition of tau phosphorylation, ClariCELL Kinase Cell-Based Assay, HEK 293 cells expressing human DYRK1A and tau. The following applies: for inhibition at 1 µM: HEK293, read-out: % inhibition at 1 uM, tau phosphorylation, compound 1 uM; for inhibition at 0.25 µM / inhibition at 0.5 µM: HEK293, tau phosphorylation; for inhibition at 0.25 µM: compound 0.25 uM; for inhibition at 0.5 µM: compound 0.5 uM. The protocol:
An inhibitory effect on tau phosphorylation was determined using the ClariCELL™ Kinase Cell-Based Assay service (commercially available from CamaBio USA, Inc.). Human embryonic kidney (HEK 293) cells temporarily expressing human DYRK1A and tau were exposed to the compound, and then lysed to release cell proteins. In this case, the released tau was captured on a plate, and a degree of phosphorylation was quantified by ELISA using a tau phosphorylation-specific antibody.

The target of a further assay is LRRK2 (G2019S) (Homo sapiens, UniProt Q5S007, G2019S). Briefly: LRRK2 G2019S enzyme inhibition, ADP-Glo kinase assay. The class given is biochemical. More on the design: purchased SignalChem L10-12GG. The conditions noted are these: ATP 25 μM. A digest of the protocol:
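IC50 derived from luminescent ADP-Glo readout against untreated solvent control, twelve final compound concentrations from 50 μM downward. Reaction: recombinant human LRRK2 G2019S enzyme, 25 μM ATP, substrate, pH 7.4 Tris buffer with MgCl2/BSA/DTT, 25° C. for 2 hours.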

The subject of the next assay is MDA-MB-231 cell line. The assay is described as follows: Inhibition of proliferation of MDA-MB-231 cancer cells (Cell Titer-Glo). The class given is cell-based. The following applies: Homo sapiens, 72 hours. The protocol:
as §1

The structures appear in SMILES notation.

Chain of LRRK2 (Q5S007 970-2527 limits assumed): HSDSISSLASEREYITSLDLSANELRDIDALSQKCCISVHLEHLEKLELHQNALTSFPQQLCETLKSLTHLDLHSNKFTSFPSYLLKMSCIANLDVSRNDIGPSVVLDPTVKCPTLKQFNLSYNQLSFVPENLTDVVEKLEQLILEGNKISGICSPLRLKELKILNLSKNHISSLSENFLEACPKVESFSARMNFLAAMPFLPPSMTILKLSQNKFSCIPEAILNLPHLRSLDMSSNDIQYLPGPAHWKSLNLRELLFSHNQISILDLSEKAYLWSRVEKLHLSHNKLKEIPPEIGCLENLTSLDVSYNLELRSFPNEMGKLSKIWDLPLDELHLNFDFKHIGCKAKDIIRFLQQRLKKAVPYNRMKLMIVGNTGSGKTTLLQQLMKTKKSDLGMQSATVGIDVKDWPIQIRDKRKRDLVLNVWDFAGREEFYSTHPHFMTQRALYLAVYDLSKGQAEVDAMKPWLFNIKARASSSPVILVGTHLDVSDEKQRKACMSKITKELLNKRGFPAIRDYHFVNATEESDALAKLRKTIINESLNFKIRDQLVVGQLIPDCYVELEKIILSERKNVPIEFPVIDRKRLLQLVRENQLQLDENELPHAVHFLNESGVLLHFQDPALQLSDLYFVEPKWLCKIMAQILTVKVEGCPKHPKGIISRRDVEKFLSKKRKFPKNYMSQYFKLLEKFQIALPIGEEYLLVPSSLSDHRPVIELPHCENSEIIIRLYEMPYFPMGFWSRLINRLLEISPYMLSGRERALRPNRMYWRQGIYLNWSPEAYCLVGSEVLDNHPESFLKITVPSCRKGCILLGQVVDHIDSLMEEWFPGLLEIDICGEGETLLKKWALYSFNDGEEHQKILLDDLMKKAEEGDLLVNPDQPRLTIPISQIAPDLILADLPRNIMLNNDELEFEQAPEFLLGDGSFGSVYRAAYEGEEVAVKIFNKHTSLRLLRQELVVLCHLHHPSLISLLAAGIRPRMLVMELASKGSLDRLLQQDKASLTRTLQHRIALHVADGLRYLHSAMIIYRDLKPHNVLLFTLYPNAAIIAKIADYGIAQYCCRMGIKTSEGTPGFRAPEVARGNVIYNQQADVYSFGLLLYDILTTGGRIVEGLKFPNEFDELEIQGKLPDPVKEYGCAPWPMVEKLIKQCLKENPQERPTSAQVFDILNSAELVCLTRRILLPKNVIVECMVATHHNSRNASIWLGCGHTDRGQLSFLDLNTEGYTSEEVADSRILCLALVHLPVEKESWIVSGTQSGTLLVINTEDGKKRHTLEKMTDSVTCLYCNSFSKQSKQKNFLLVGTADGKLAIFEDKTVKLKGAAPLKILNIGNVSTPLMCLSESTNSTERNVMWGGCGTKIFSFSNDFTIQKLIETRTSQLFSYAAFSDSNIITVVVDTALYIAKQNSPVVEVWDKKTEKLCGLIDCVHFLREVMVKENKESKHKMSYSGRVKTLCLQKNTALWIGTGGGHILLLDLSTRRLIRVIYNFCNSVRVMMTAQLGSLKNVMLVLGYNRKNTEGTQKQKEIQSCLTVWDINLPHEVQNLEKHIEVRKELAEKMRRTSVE
T2 sequence (P49759 129-484 limits assumed): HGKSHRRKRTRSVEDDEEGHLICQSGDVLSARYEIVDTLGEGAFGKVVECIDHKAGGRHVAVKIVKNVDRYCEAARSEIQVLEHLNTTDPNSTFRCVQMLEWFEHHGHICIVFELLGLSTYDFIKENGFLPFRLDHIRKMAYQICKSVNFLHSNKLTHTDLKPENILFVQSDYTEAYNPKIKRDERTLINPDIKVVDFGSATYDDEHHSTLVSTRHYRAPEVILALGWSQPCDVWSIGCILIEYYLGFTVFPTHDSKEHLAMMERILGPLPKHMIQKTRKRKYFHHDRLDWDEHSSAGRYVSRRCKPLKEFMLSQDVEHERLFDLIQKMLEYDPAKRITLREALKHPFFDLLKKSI
Chain of LRRK2 (G2019S) (Q5S007 970-2527 G2019S limits assumed): as the sequence (Q5S007 970-2527 limits assumed) above, with G1050S counted along it

On to `O=C(c1ccc(Nc2nc(NC3CCCCC3)c3cc[nH]c3n2)c2c1CCO2)N1CCOCC1` [Example 244, (7-((4-(cyclohexylamino)-7H-pyrrolo[2,3-d]pyrimidin-2-yl)amino)-2,3-dihydrobenzofuran-4-yl)(morpholino)methanone], for which the 50% inhibitory concentration (IC50) against LRRK2 is less than 100 nM; at human GST-DYRK1A it was 301 to 1000 nM; against human GST-CLK1, 301 to 1000 nM. The compound further displayed a 50% growth inhibitory concentration (GI50) in the assay on MDA-MB-468 cell line of less than 50 nM.
Regarding `COc1cc(S(=O)(=O)N2CCOCC2)ccc1Nc1nc(NC(C)C)c2c(C#N)c[nH]c2n1` [Example 250, 4-(isopropylamino)-2-((2-methoxy-4-(morpholinosulfonyl)phenyl)amino)-7H-pyrrolo[2,3-d]pyrimidine-5-carbonitrile], the IC50 was less than 100 nM against LRRK2, 301 to 1000 nM on human GST-DYRK1A and 301 to 1000 nM against human GST-CLK1. The GI50 in the assay with MDA-MB-468 cell line is less than 50 nM.
With `CCNc1nc(Nc2ccc(P3(=O)CCN(C4CCOCC4)CC3)cc2OC)nc2[nH]cc(C(F)(F)F)c12` [Example 439, 4-(4-((4-(ethylamino)-5-(trifluoromethyl)-7H-pyrrolo[2,3-d]pyrimidin-2-yl)amino)-3-methoxyphenyl)-1-(tetrahydro-2H-pyran-4-yl)-1,4-azaphosphinane 4-oxide], the IC50 against LRRK2, on human GST-DYRK1A and against human GST-CLK1 was less than 100 nM each time. Further, the inhibition at 1 µM with human DYRK1A and tau was determined as 55.7%. Further, in the assay with human DYRK1A and tau, the inhibition at 0.25 µM worked out at 18.8%. The inhibition at 0.5 µM in the assay with human DYRK1A and tau is 43.6%.
Take `O=C(c1ccc(Nc2nc(NC3CCCC3)c3cc[nH]c3n2)c2c1CCO2)N1CCC(N2CCOCC2)CC1` [Example 241, (7-((4-(cyclopentylamino)-7H-pyrrolo[2,3-d]pyrimidin-2-yl)amino)-2,3-dihydrobenzofuran-4-yl)(4-morpholinopiperidin-1-yl)methanone]: the IC50 on human GST-DYRK1A and against human GST-CLK1 was 301 to 1000 nM in each case. This compound also had a GI50 with MDA-MB-468 cell line of 301 to 1000 nM.
Turning to `COc1cc(P2(=O)CCN(C3CC3)CC2)ccc1Nc1nc(NC2CCCC2)c2cc[nH]c2n1` [Example 242, 4-(4-((4-(cyclopentylamino)-7H-pyrrolo[2,3-d]pyrimidin-2-yl)amino)-3-methoxyphenyl)-1-cyclopropyl-1,4-azaphosphinane 4-oxide], the IC50 on human GST-DYRK1A and on human GST-CLK1 was 301 to 1000 nM in each case. The compound further had a GI50 in the assay on MDA-MB-468 cell line of 301 to 1000 nM.
For `N#Cc1c[nH]c2nc(Nc3ccc(C(=O)N4CCOCC4)c4c3OCC4)nc(NC3CCCC3)c12` [Example 319, 4-(cyclo-pentylamino)-2-((4-(morpholine-4-carbonyl)-2,3-dihydrobenzo-furan-7-yl)amino)-7H-pyrrolo[2,3-d]pyrimidine-5-carbonitrile], the values for the IC50 against LRRK2, at human GST-DYRK1A and on human GST-CLK1 were less than 100 nM, 301 to 1000 nM and less than 100 nM, respectively. This compound displayed a 50% growth inhibitory concentration (GI50) in the assay with MDA-MB-468 cell line of less than 50 nM.
For `N#Cc1c[nH]c2nc(Nc3ccc(C(=O)N4CCC(N5CCOCC5)CC4)c4c3OCC4)nc(NC3CCCC3)c12` [Example 320, 4-(cyclo-pentylamino)-2-((4-(4-morpholino-piperidine-1-carbonyl)-2,3-dihydro-benzofuran-7-yl)amino)-7H-pyrrolo[2,3-d]pyrimidine-5-carbonitrile], the IC50 on human GST-DYRK1A and at human GST-CLK1 was less than 100 nM each time. In the assay with MDA-MB-468 cell line, the 50% growth inhibitory concentration (GI50) lay in the range of 301 to 1000 nM.
For the compound `COc1cc(P2(=O)CCN(C3CC3)CC2)ccc1Nc1nc(NC(C)C)c2c(C(F)(F)F)c[nH]c2n1` [Example 440, 1-cyclopropyl-4-(4-((4-(isopropylamino)-5-(trifluoromethyl)-7H-pyrrolo[2,3-d]pyrimidin-2-yl)amino)-3-methoxyphenyl)-1,4-azaphosphinane 4-oxide], the IC50 on human GST-DYRK1A lay within 301 to 1000 nM. Further, in the assay on human DYRK1A and tau, the inhibition at 1 µM was found to be 36.3%, the inhibition at 0.25 µM was determined as 9.6% and the inhibition at 0.5 µM amounted to 27.8%. In addition, the half-inhibitory concentration (IC50) at LRRK2 (G2019S) was less than 100 nM. Also, the IC50 against human GST-CLK1 lay in the range of 301 to 1000 nM.
`N#Cc1c[nH]c2nc(Nc3ccc(C(=O)N4CCC(N5CCOCC5)CC4)c4c3OCC4)nc(NC3CCCCC3)c12` [Example 322, 4-(cyclo-hexylamino)-2-((4-(4-morpholino-piperidine-1-carbonyl)-2,3-dihydro-benzofuran-7-yl)amino)-7H-pyrrolo[2,3-d]pyrimidine-5-carbonitirle]: the IC50 on LRRK2, on human GST-DYRK1A, against LRRK2 (G2019S) and against human GST-CLK1 was less than 100 nM each time. For the same compound, in the assay on human DYRK1A and tau, the inhibition at 1 µM came out at 64.3%. The inhibition at 0.25 µM with human DYRK1A and tau was -10.5%. Also, in the assay with human DYRK1A and tau, the inhibition at 0.5 µM amounted to 34.2%.
For the compound `O=C(c1ccc(Nc2nc(NC3CCCCC3)c3cc[nH]c3n2)c2c1CCO2)N1CCC(N2CCOCC2)CC1` [Example 245, (7-((4-(cyclohexylamino)-7H-pyrrolo[2,3-d]pyrimidin-2-yl)amino)-2,3-dihydrobenzofuran-4-yl)(4-morpholinopiperidin-1-yl)methanone], the IC50 on human GST-DYRK1A and on human GST-CLK1 was 301 to 1000 nM each time. In the assay on MDA-MB-468 cell line, this compound showed a GI50 of 51 to 100 nM.
For `COc1cc(P2(=O)CCN(C3CCOCC3)CC2)ccc1Nc1nc(NC2CCCC2)c2cc[nH]c2n1` [Example 243, 4-(4-((4-(cyclopentylamino)-7H-pyrrolo[2,3-d]pyrimidin-2-yl)amino)-3-methoxyphenyl)-1-(tetrahydro-2H-pyran-4-yl)-1,4-azaphosphinane 4-oxide], the IC50 at human GST-DYRK1A and against human GST-CLK1 was 301 to 1000 nM each time. For the same compound, the GI50 in the assay on MDA-MB-468 cell line lay within 301 to 1000 nM.
Consider `O=C(c1ccc(Nc2nc(NCC3CC3)c3c(C(F)(F)F)c[nH]c3n2)c2c1OCCO2)N1CCN(C2COC2)CC1` [Example 422, (8-((4-((cyclo-propylmeth-yl)amino)-5-(trifluoromethyl)-7H-pyrrolo[2,3-d]pyrimidin-2-yl)amino)-2,3-dihydrobenzo[b] [1,4]dioxin-5-yl) (4-(oxetan-3-yl)piperazin-1-yl)methanone], for which the IC50 on human GST-DYRK1A lay within 301 to 1000 nM. Besides, in the assay with human DYRK1A and tau, the inhibition at 1 µM was found to be 33.2%, the inhibition at 0.25 µM came out at 7.4% and the inhibition at 0.5 µM was 19.6%. In addition, the IC50 at LRRK2 (G2019S) was less than 100 nM. Also, the IC50 at human GST-CLK1 was less than 100 nM.
On to `CC[C@H](C)Nc1nc(Nc2ccc(C(=O)N3CCC(N4CCOCC4)CC3)c3c2OCC3)nc2[nH]cc(C#N)c12` [Example 357, (S)-4-(sec-butylamino)-2-((4-(4-morpholino-piperidine-1-carbonyl)-2,3-dihydro-benzofuran-7-yl)amino)-7H-pyrrolo[2,3-d]pyrimidine-5-carbonitrile], for which the values for the IC50 at human GST-DYRK1A, at LRRK2 (G2019S) and against human GST-CLK1 were 301 to 1000 nM, less than 100 nM and less than 100 nM, respectively. Also, the inhibition at 1 µM in the assay with human DYRK1A and tau was 35.4%. Besides, in the assay with human DYRK1A and tau, the inhibition at 0.25 µM worked out at 19.7%. The inhibition at 0.5 µM in the assay with human DYRK1A and tau came out at 33.1%.
On to `COCC(C)(C)Nc1nc(Nc2ccc(S(=O)(=O)N3CCC(N4CCOCC4)CC3)cc2OC)nc2[nH]cc(C(F)(F)F)c12` [Example 176, N^4-(1-methoxy-2-methylpropan-2-yl)-N^2-(2-methoxy-4-((4-morpholinopiperidin-1-yl)sulfonyl)phenyl)-5-(trifluoromethyl)-7H-pyrrolo[2,3-d]pyrimidine-2,4-diamine], for which the GI50 in the assay on MDA-MB-231 cell line lay in the range of 101 to 300 nM. Also, the IC50 at LRRK2, at human GST-DYRK1A, at LRRK2 (G2019S) and against human GST-CLK1 was 301 to 1000 nM each time.
